Measurements: ChEMBL document CHEMBL1145870, “Triethylene tetraamine: a novel telomerase inhibitor” (Bioorg Med Chem Lett, 2003)
Where “and” joins values, the source holds several entries; their conditions need not be identical. Equal entries are not always repeated.

Tests used:
[1] = Dose required to inhibit HLF cells by 50 percent; details: Homo sapiens, read-out: LD50
HeLa = assay: Inhibitory activity against HeLa cell line using 3-(4,5-dimethylthiazol-2-yl)-2,5-diphenyltetrazolium bromide (MTT, Sigma) assay.

NCCNCCNCCN [TRIENTINE]
CC50 [1]: 3100 µM | IC50 (HeLa): 74.8 µM and 7.8 µM
